Measured values reported in patent US20230203098A1, “HUMAN TRANSFERRIN RECEPTOR BINDING PEPTIDE” (priority 2020, published 2023).
Where two headings read alike, the source gives them in different places. Values belong to the compound of their own block, whether it stands above or below them. Where a SMILES comes first, the peptide text is derived from it. Bridges are numbered along the chain shown (N, C = ends). [ ]: non-standard residue; d: D form. The star is where a group is joined. X2 = O=C(O)c1cc(C(=O)*)ccc1-c1c2ccc(=O)cc-2oc2cc(O)ccc12; PEG12 = NCCOCCOCCOCCOCCOCCOCCOCCOCCOCCOCCOCCOCCC(=O)O; NMePhe(3-Cl) = CN[C@@H](Cc1cccc(Cl)c1)C(=O)O; NMeW = CN[C@@H](Cc1c[nH]c2ccccc12)C(=O)O; NMeY = CN[C@@H](Cc1ccc(O)cc1)C(=O)O

What was measured:
[1] = system: Human breast cancer cells BT-549; experiment: Migration of 5-FAM peptide conjugates into human breast cancer cells BT-549 (fluorescence microscopy); assay type: cell-based; settings: BT-549 cells, sample diluted to 100 nmol/L, 37° C., 3 hours
Experimental: Culturing was performed under conditions of 37° C. and 5% CO2.
Collagen Type I (Corning) was diluted to 50 µg/mL with 20 mmol/L acetic acid. A sterilized cover glass was placed in each well of the 24-well plate. After the diluted Collagen Type I solution was added to the plate, the plate was incubated at 37° C. for 1 hour. The Collagen Type I solution was removed from the plate and the plate was washed 3 times with PBS. The human breast cancer cells BT-549 were inoculated in an amount of 1 × 10^5 cells per 1 well and cultured overnight under conditions of 37° C. and 5% CO2.
The sample was diluted with the dilution medium to 100 nmol/L.
The sample solution was removed from the 24-well plate, and the BT-549 cells were washed three times with PBS. 4% paraformaldehyde phosphate buffer (FUJIFILM Wako Pure Chemical Corporation) was added at 500 µL/well, and the cells were allowed to stand at room temperature for 15 minutes and then washed three times with PBS. Further, Hoechst 33342 (Thermo Fisher Scientific) diluted with PBS to 2 µg/mL was added at 500 µL/well, and the cells were allowed to stand at room temperature under shading for 10 minutes and then washed three times with PBS. The cover glass was removed from the 24-well plate, and the cells were enclosed on a slide glass using fluorescent mounting medium (Agilent Technologies) and allowed to stand at room temperature under shading overnight. For the observation, an inverted fluorescence microscope DMI6000B (Leica Microsystems) was used, and the observation was performed at the wavelength for detecting FITC and DAPI. The scale bar in the figures indicates 50 µm.

[2] = target: transferrin receptor (hTfR) (Homo sapiens, UniProt P02786); experiment: Intermolecular interaction evaluation test between transferrin receptor (hTfR) and peptide by surface plasmon resonance (SPR); assay type: binding
transferrin receptor (hTfR), sequence (P02786 whole entry): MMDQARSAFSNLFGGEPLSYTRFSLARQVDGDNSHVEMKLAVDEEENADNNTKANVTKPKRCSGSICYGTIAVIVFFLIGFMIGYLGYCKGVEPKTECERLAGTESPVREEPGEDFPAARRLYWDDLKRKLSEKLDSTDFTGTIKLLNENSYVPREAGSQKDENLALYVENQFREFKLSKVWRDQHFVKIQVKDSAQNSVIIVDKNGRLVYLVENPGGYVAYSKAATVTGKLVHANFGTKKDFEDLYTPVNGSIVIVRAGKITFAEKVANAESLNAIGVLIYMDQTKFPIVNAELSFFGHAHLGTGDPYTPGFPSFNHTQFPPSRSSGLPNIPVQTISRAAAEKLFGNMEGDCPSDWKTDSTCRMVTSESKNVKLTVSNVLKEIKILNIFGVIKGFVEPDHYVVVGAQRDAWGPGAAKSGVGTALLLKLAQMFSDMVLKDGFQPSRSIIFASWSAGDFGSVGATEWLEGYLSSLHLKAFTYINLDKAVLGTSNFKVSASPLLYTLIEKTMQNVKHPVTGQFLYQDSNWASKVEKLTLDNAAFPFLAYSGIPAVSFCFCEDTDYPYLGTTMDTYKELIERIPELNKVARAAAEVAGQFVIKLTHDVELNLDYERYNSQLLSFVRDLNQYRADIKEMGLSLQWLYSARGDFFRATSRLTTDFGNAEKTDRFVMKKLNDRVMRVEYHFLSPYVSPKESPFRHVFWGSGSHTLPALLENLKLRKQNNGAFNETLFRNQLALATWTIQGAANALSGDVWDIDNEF
How it was run: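 Receptor was Ni-captured and EDC/NHS-fixed on an NTA chip; running buffer HEPES pH 8.0 with NaCl, Tween 20, BSA and 1.0% DMSO.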

[3] = SPR, linker and payload (FITC, VivoTag) conjugates, read-out: KD
[4] = SPR, peptides, linker-added peptides and FITC conjugates, Patent ID 203-230, read-out: KD
[5] = binding to hTfR by SPR, Table 2 peptides, read-out: KD value (SPR) class

- Kd [2, 3]: 1 to 100 nM
Compound: CC[C@H](C)[C@@H]1NC(=O)[C@H](Cc2ccc(O)cc2)NC(=O)[C@H](Cc2ccc(O)cc2)NC(=O)[C@H](CC(N)=O)NC(=O)[C@H](Cc2c[nH]c3ccccc23)NC(=O)[C@H](C(C)C)NC(=O)[C@H](Cc2ccccc2)N(C)C(=O)[C@H](C(C)C)NC(=O)[C@H](C)NC(=O)CSC[C@@H](C(=O)NCCOCCOCCOCCOCCC(=O)N[C@@H](CNC(=O)c2ccc(-c3c4ccc(=O)cc-4oc4cc(O)ccc34)c(C(=O)O)c2)C(N)=O)NC(=O)[C@H](Cc2ccc(O)cc2)N(C)C(=O)[C@H](Cc2ccc(O)cc2)NC(=O)[C@H](CCCNC(=N)N)NC(=O)[C@H](CCCNC(=N)N)NC(=O)[C@H]([C@@H](C)CC)NC1=O [compound 162]

- Kd ([2]; surface plasmon resonance, hTfR, read-out: KD value for hTfR by SPR (class symbol)): 1 to 100 nM
Compound: CC[C@H](C)[C@@H]1NC(=O)[C@H](Cc2ccc(OC)cc2)NC(=O)[C@H](Cc2ccc(O)cc2)NC(=O)[C@H](CC(N)=O)NC(=O)[C@H](Cc2c[nH]c3ccccc23)N(C)C(=O)[C@H](C(C)C)NC(=O)[C@H](Cc2cccc(Cl)c2)N(C)C(=O)[C@H](C(C)C)NC(=O)[C@H](C)NC(=O)CSC[C@@H](C(N)=O)NC(=O)[C@H](Cc2ccc(O)cc2)N(C)C(=O)[C@H](Cc2ccccc2)NC(=O)[C@@H](C)NC(=O)[C@H](CCCCN)NC(=O)[C@H]([C@@H](C)CC)NC1=O [compound 372]

- Kd ([2]; surface plasmon resonance, peptide vs hTfR, read-out: KD value, hTfR binding by SPR (class symbol)): 1 to 100 nM
Compound: CC[C@H](C)[C@@H]1NC(=O)[C@H](Cc2ccc(OC)cc2)NC(=O)[C@H](Cc2ccc(O)cc2)NC(=O)[C@H](CC(N)=O)NC(=O)[C@H](Cc2cn(CC(=O)O)c3ccccc23)NC(=O)[C@H](C(C)C)NC(=O)[C@H](Cc2cccc(Cl)c2)N(C)C(=O)[C@H](C(C)C)NC(=O)[C@H](C)NC(=O)CSC[C@@H](C(N)=O)NC(=O)[C@H](Cc2ccc(O)cc2)N(C)C(=O)[C@H](Cc2ccccc2)NC(=O)[C@@H](CCCNC(=N)N)NC(=O)[C@H](CCCNC(=N)N)NC(=O)[C@H]([C@@H](C)CC)NC1=O [compound 306]

- Kd ([2]; surface plasmon resonance, peptide vs hTfR, read-out: KD value for hTfR by SPR (class symbol)): 1 to 100 nM
Compound: CC[C@H](C)[C@@H]1NC(=O)[C@H](Cc2ccc(O)cc2)NC(=O)[C@H](Cc2ccc(O)cc2)NC(=O)[C@H](CC(N)=O)NC(=O)[C@H](Cc2c[nH]c3ccccc23)NC(=O)[C@H](C(C)C)NC(=O)[C@H](Cc2ccccc2)N(C)C(=O)[C@H](C(C)C)NC(=O)[C@H](C)NC(=O)CSC[C@@H](C(=O)NCC(=O)O)NC(=O)[C@H](Cc2ccc(O)cc2)N(C)C(=O)[C@H](Cc2ccc(O)cc2)NC(=O)[C@H](CCCNC(=N)N)NC(=O)[C@H](CCCNC(=N)N)NC(=O)[C@H]([C@@H](C)CC)NC1=O [compound 421]

- Kd ([2]; SPR, hTfR, class symbols A-D, read-out: KD): 1 to 100 nM
Compound: CC[C@H](C)[C@@H]1NC(=O)[C@H](Cc2ccc(OC)cc2)NC(=O)[C@H](Cc2ccc(O)cc2)NC(=O)[C@H](CC(N)=O)NC(=O)[C@H](Cc2c[nH]c3ccccc23)N(C)C(=O)[C@H](C(C)C)NC(=O)[C@H](Cc2cccc(Cl)c2)N(C)C(=O)[C@H](C(C)C)NC(=O)[C@H](C)NC(=O)CSC[C@@H](C(N)=O)NC(=O)[C@H](Cc2ccc(O)cc2)N(C)C(=O)[C@H](Cc2cccc(C(=O)O)c2)NC(=O)[C@@H](CCCNC(=N)N)NC(=O)[C@H](CCCNC(=N)N)NC(=O)[C@H]([C@@H](C)CC)NC1=O [compound 461]

- Kd [2, 5]: 1 to 100 nM
Compound: CC[C@H](C)[C@@H]1NC(=O)[C@H](Cc2ccc(O)cc2)NC(=O)[C@H](Cc2ccc(O)cc2)NC(=O)[C@H](CC(N)=O)NC(=O)[C@H](Cc2c[nH]c3ccccc23)NC(=O)[C@H](C(C)C)NC(=O)[C@H](Cc2ccccc2)NC(=O)[C@H](C(C)C)NC(=O)[C@H](C)NC(=O)CSC[C@@H](C(N)=O)NC(=O)[C@H](Cc2ccc(O)cc2)N(C)C(=O)[C@H](Cc2ccc(O)cc2)NC(=O)[C@H](CCCCN)NC(=O)[C@H](CCCNC(=N)N)NC(=O)[C@H]([C@@H](C)CC)NC1=O [compound 258]

- Kd [2, 5]: 1 to 100 nM
Compound: CC[C@H](C)[C@@H]1NC(=O)[C@H](C2CCCCC2)NC(=O)[C@H](Cc2ccc(O)cc2)NC(=O)[C@H](Cc2ccc(O)cc2)NC(=O)[C@H](CC(N)=O)NC(=O)[C@H](Cc2c[nH]c3ccccc23)NC(=O)[C@H](C(C)C)NC(=O)[C@H](Cc2ccccc2)N(C)C(=O)[C@H](C(C)C)NC(=O)[C@H](C)NC(=O)CSC[C@@H](C(N)=O)NC(=O)[C@H](Cc2ccc(O)cc2)N(C)C(=O)[C@H](Cc2ccc(O)cc2)NC(=O)[C@H](CCCNC(=N)N)NC(=O)[C@H](CCCNC(=N)N)NC1=O [compound 282]

- Kd ([2]; SPR, hTfR, class symbols A-D, read-out: KD (column without head, continuation of the table series)): 100 to 1000 nM
Compound: CC[C@H](C)[C@@H]1NC(=O)[C@H](Cc2ccc(OCCN)cc2)NC(=O)[C@H](Cc2ccc(O)cc2)NC(=O)[C@H](CC(N)=O)NC(=O)[C@H](Cc2c[nH]c3ccccc23)NC(=O)[C@H](C(C)C)NC(=O)[C@H](Cc2ccccc2)N(C)C(=O)[C@H](C(C)C)NC(=O)[C@H](C)NC(=O)CSC[C@@H](C(N)=O)NC(=O)[C@H](Cc2ccc(O)cc2)N(C)C(=O)[C@H](Cc2ccccc2)NC(=O)[C@H](CCCNC(=N)N)NC(=O)[C@H](CCCNC(=N)N)NC(=O)[C@H]([C@@H](C)CC)NC1=O [compound 522]

The next lines start with the compound.

Compound: Patent ID 448: 5-FAM labelled conjugate of hTfR_894_variant03_PEG4 (AVXVWNYXIIRXFYC; not fully specified; PEG4 linker, 5-FAM label; (3)..(3) Xaa is MeF3C; MOD_RES (5)..(5) …ON; (8)..(8) Xaa is F4OMe; (12)..(12) Xaa is dr; MOD_RES (14)..(14) …ON)
- migration into the cells [1]: into the cells was confirmed

Compound: CC[C@H](C)[C@@H]1NC(=O)[C@H](Cc2ccc(O)cc2)NC(=O)[C@H](Cc2ccc(O)cc2)NC(=O)[C@H](CC(N)=O)NC(=O)[C@H](Cc2c[nH]c3ccccc23)NC(=O)[C@H](C(C)C)NC(=O)[C@H](Cc2ccccc2)NC(=O)[C@H](C(C)C)NC(=O)[C@H](C)NC(=O)CSC[C@@H](C(=O)NCCOCCOCCOCCOCCOCCOCCOCCOCCOCCOCCOCCOCCC(=O)N[C@@H](CCCCNC(=O)c2ccc(-c3c4ccc(=O)cc-4oc4cc(O)ccc34)c(C(=O)O)c2)C(N)=O)NC(=O)[C@H](CC(=O)O)NC(=O)[C@H](CCCNC(=N)N)NC(=O)[C@@H]2CCCN2C(=O)[C@H](C(C)C)NC1=O [compound 209] ({CH2CO}-AVFVWNYYIVPRDC[PEG12]K(X2)-NH2; thioether N-14)
- Kd [2, 4]: 1 to 100 nM

Compound: CC[C@H](C)[C@@H]1NC(=O)[C@H](Cc2ccc(OC)cc2)NC(=O)[C@H](Cc2ccc(O)cc2)NC(=O)[C@H](CC(N)=O)NC(=O)[C@H](Cc2c[nH]c3ccccc23)N(C)C(=O)[C@H](C(C)C)NC(=O)[C@H](Cc2cccc(Cl)c2)N(C)C(=O)[C@H](CC(=O)O)NC(=O)[C@H](C)NC(=O)CSC[C@@H](C(=O)NCC(=O)NCC(=O)NCC(=O)NCC(=O)N[C@@H](CO)C(=O)N[C@@H](CO)C(=O)N[C@@H](CS)C(N)=O)NC(=O)[C@H](Cc2ccc(O)cc2)N(C)C(=O)[C@H](Cc2ccccc2)NC(=O)[C@@H](CCCNC(=N)N)NC(=O)[C@H](CCCNC(=N)N)NC(=O)[C@H]([C@@H](C)CC)NC1=O [compound 236] ({CH2CO}-AD[NMePhe(3-Cl)]V[NMeW]NYY(Me)IIR[dR]F[NMeY]CGGGGSSC-NH2; thioether N-15)
- Kd [2]: 100 to 1000 nM

Compound: CC[C@H](C)[C@@H]1NC(=O)[C@H](Cc2ccc(O)cc2)NC(=O)[C@H](Cc2ccc(O)cc2)NC(=O)[C@H](CC(N)=O)NC(=O)[C@H](Cc2c[nH]c3ccccc23)NC(=O)[C@H](C(C)C)NC(=O)[C@H](Cc2ccccc2)NC(=O)[C@H](C(C)C)NC(=O)[C@H](C)NC(=O)CSC[C@@H](C(=O)NCCOCCOCCOCCOCCOCCOCCOCCOCCOCCOCCOCCOCCC(=O)N[C@@H](CCCCNC(=O)c2ccc(-c3c4ccc(=O)cc-4oc4cc(O)ccc34)c(C(=O)O)c2)C(N)=O)NC(=O)[C@H](Cc2ccc(O)cc2)N(C)C(=O)[C@H](Cc2ccc(O)cc2)NC(=O)[C@H](CCCNC(=N)N)NC(=O)[C@H](CCCNC(=N)N)NC(=O)[C@H]([C@@H](C)CC)NC1=O [compound 147]
- Kd [2, 3]: < 1 nM

Compound: CC[C@H](C)[C@@H]1NC(=O)[C@H](Cc2ccc(O)cc2)NC(=O)[C@H](Cc2ccc(O)cc2)NC(=O)[C@H](CC(N)=O)NC(=O)[C@H](Cc2c[nH]c3ccccc23)NC(=O)[C@H](C(C)C)NC(=O)[C@H](Cc2ccccc2)NC(=O)[C@H](C(C)C)NC(=O)[C@H](C)NC(=O)CSC[C@@H](C(=O)NCCOCCOCCOCCOCCOCCOCCOCCOCCOCCOCCOCCOCCC(=O)N[C@@H](CCCCNC(=O)c2ccc(-c3c4ccc(=O)cc-4oc4cc(O)ccc34)c(C(=O)O)c2)C(N)=O)NC(=O)[C@H](CC(N)=O)NC(=O)[C@H](CCCNC(=N)N)NC(=O)[C@@H]2CCCN2C(=O)[C@H](C(C)C)NC1=O [compound 212] ({CH2CO}-AVFVWNYYIVPRNC[PEG12]K(X2)-NH2; thioether N-14)
- Kd [2, 4]: 1 to 100 nM
